Results from article PMC8151276, “An Integrated Approach toward NanoBRET Tracers for Analysis of GPCR Ligand Engagement” (Molecules, 2021).
Each block holds one compound with its values, some of them ahead of it.

Assays:
Format in all cases: binding
HTR4 = target: T1, HTR4 (Homo sapiens, UniProt Q13639); assay: NanoBRET screen HiBiT-HTR4 in HEK293
T1 construct: purchased Promega (in-house HiBiT-GPCR construct library, NanoBRET)
Experimental: (§1) Each tracer candidate was screened across the entire library of HiBiT-GPCR constructs using NanoBRET as the detection modality. As depicted in Figure 4A, the specificity of interactions was evaluated through decrease in BRET due to competitive displacement of a bound tracer by excess parental compound. Each tracer was analyzed for binding to each HiBiT-GPCR fusion in the absence and in the presence of competing parental compound. Briefly, HEK293 cells were transfected with HiBiT-GPCR constructs diluted into promoterless DNA to reduce expression and maximize translocation to the cell surface. Each tracer candidate was then screened at concentrations of 1 μM and 0.1 μM across cells expressing these fusions. Cells were treated for 1.5 h with tracer either alone or in the presence of 20 μM competing parental compound (i.e., control). BRET was measured upon addition of purified LgBiT and subsequent complementation with HiBiT genetically fused to a GPCR. The specificity of interactions was assessed through a decrease in BRET signal due to competitive displacement of the bound tracer. To further gauge the robustness of these interactions, the fold response over the control (i.e., BRETtracer/BRETcontrol) was calculated. We chose a 1.5-fold response, which translates to ≥7-fold signal over noise as the minimal threshold required to score an interaction as positive. […]. Below we highlight the screening results obtained for our exemplary fluorescent tracers based on Clozapine, Amitriptyline and AZD1283.
(§2) HiBiT-GPCR DNA constructs were diluted in 10 mM Tris pH 8 to a final concentration of 0.01 μg/μL, arrayed in 96-well plates and stored at −20 °C. For transfection, HEK293 cells were suspended in Opti-MEM (without phenol red) supplemented with 2% fetal bovine serum (Seradigm) and 100 units/mL penicillin–streptomycin (Gibco) at a final concentration of 220,000 cells/mL and dispensed into white 96-well plates at 90 μL/well. Subsequent transfections and screens were carried using an Agilent Bravo Automated Liquid Handling Platform. First, the 96-well HiBiT DNA arrays were diluted 25-fold in Opti-MEM (without serum or phenol red) to a final concentration of 0.0004 μg/μL and 20 μL of the diluted DNAs were transferred into new 96-well plates. Next, promoterless carrier DNA (1 μg/μL) was diluted 25-fold (0.04 μg/μL) and then dispensed into the diluted arrays at 20 μL/well. Following brief mixing, Viafect transfection reagent (Promega) diluted 16-fold into Opti-MEM was dispensed into the plates at 40 μL/well. After mixing by pipetting, plates were incubated for 10 min on the pipetting station deck. The DNA-transfection reagent complexes were then added to plates containing cells. To facilitate the screen, 10 μL of DNA-transfection reagent complexes were added in duplicates to the top 4 and bottom 4 rows, resulting in two identical 48-well arrays per plate. Plates with transfected cells were incubated for 18–20 h at 37 °C/5% CO2. A screen of each tracer across the entire library using two different concentrations requires duplicate plates of transfected cells. Depending on the number of tracers being screened, transfections can be scaled up using the same ratios. The next day, for each tracer, four 20× screening solutions in tracer dilution buffer (Promega) were prepared: two duplicates at final concentration of 20 μM and two duplicates at a final concentration of 2 μM. A competing unmodified compound was added to one of each duplicate at a final concentration of 400 μM. The four resulting solutions were diluted 4-fold in Opti-MEM without serum or phenol red to generate 5× solutions (5 µM and 0.5 µM tracer +/− 100 μM competing compound). To screen the library, a BioTek MultiFlo FX liquid dispenser was used to dispense 22.5 µL of tracer solution to the top 4 rows and 22.5 µL tracer + competing compound solution to the 4 bottom rows. Plates were briefly mixed on an orbital shaker and incubated for 1.5 h at room temperature. […]

P2RY4 = target: T2, P2RY4 (Homo sapiens, UniProt P51582); assay: NanoBRET screen HiBiT-P2RY4 in HEK293
T2 construct: purchased Promega (in-house HiBiT-GPCR construct library, NanoBRET)
T2 sequence (P51582 whole entry): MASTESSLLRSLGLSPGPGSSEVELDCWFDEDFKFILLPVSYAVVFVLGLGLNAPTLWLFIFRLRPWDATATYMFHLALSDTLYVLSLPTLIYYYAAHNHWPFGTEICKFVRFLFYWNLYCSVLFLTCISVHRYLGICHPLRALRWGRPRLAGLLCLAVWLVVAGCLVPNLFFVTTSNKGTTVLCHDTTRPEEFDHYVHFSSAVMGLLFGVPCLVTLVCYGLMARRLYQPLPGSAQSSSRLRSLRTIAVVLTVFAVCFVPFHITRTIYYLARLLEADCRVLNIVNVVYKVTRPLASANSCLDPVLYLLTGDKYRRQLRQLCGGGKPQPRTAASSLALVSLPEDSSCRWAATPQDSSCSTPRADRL
Experimental: as §1, §2

CCR4 = target: T3, CCR4 (Homo sapiens, UniProt P51679); assay: NanoBRET screen HiBiT-CCR4 in HEK293
T3 construct: purchased Promega (in-house HiBiT-GPCR construct library, NanoBRET)
T3 sequence (P51679 1-360): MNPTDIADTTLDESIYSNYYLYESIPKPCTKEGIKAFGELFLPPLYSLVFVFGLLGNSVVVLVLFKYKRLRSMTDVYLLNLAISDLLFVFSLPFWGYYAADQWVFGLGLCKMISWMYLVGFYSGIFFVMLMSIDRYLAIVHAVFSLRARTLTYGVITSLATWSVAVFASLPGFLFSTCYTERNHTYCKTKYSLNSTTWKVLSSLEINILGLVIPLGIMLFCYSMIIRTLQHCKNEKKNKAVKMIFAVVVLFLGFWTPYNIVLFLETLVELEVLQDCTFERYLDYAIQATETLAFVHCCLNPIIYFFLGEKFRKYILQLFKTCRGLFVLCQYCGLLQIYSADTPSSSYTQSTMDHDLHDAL
Experimental: as §1, §2

[1] = tracer at 0.1μM, listed as amitriptyline-b-2-NB590

T1 sequence (Q13639 whole entry): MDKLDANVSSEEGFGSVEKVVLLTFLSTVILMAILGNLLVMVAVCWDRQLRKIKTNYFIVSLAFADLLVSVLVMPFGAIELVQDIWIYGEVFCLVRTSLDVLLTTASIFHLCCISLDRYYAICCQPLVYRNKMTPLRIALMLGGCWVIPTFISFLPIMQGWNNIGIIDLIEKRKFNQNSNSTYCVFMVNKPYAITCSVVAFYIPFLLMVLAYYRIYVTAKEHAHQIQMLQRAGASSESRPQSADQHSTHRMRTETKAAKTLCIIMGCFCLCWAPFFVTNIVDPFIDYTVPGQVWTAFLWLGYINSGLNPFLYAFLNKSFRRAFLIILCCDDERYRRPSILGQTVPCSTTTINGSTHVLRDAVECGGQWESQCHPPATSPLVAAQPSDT

SMILES: CCOC(=O)c1cc(C#N)c(N2CCC(C(=O)NS(=O)(=O)Cc3ccccc3/C=C/C(=O)NCCNC(=O)CCc3ccc4n3[B-](F)(F)[N+]3=C(c5ccc[nH]5)C=CC3=C4)CC2)nc1C [AZD1283-1-NB590]
NanoBRET Fold Response (HTR4; HTR4, 0.1μM): 1.01
NanoBRET Fold Response (HTR4; HTR4, 1μM): 1.00
NanoBRET Fold Response (P2RY4; P2RY4, 0.1μM): 1.05
NanoBRET Fold Response (P2RY4; P2RY4, 1μM): 1.12
NanoBRET Fold Response (CCR4; CCR4, 0.1μM): 1.09
NanoBRET Fold Response (CCR4; CCR4, 1μM): 1.07

SMILES: CN(C)CCC=C1c2ccccc2CCc2ccc(C(=O)NCCNC(=O)CCOCCOCCOCCOCCNC(=O)CCc3ccc4n3[B-](F)(F)[N+]3=C(c5ccc[nH]5)C=CC3=C4)cc21 [Amitriptyline-a-2-NB590]
NanoBRET Fold Response (P2RY4; tracer at 0.1μM): 1.01
NanoBRET Fold Response (P2RY4; tracer at 1μM): 1.02
NanoBRET Fold Response (CCR4; tracer at 0.1μM): 0.92
NanoBRET Fold Response (CCR4; tracer at 1μM): 1.01

SMILES: CN(C)CCC=C1c2ccccc2CCc2ccc(C(=O)NCCNC(=O)CCOCCOCCOCCOCCNC(=O)CCc3ccc4n3[B-](F)(F)[N+]3=C(c5ccc[nH]5)C=CC3=C4)cc21 [Amitriptyline-b-2-NB590]
NanoBRET Fold Response (HTR4; tracer at 0.1μM): 1.03
NanoBRET Fold Response (HTR4; tracer at 1μM): 1.09
NanoBRET Fold Response (P2RY4; [1]): 1.07
NanoBRET Fold Response (CCR4; [1]): 1.02
NanoBRET Fold Response (CCR4; tracer at 1μM): 0.95

SMILES: CN(CCC=C1c2ccccc2CCc2ccccc21)C(=O)CCOCCOCCOCCOCCNC(=O)CCc1ccc2n1[B-](F)(F)[N+]1=C(c3ccc[nH]3)C=CC1=C2 [Amitriptyline-e-2-NB590]
NanoBRET Fold Response (P2RY4; tracer at 1μM): 1.04
NanoBRET Fold Response (CCR4; tracer at 1μM): 0.97

Continued, values first:

NanoBRET Fold Response (HTR4; HTR4, other tracers/Aminopotentidine (unmodified), 0.1μM): 1.01
NanoBRET Fold Response (HTR4; HTR4, other tracers/Aminopotentidine (unmodified), 1μM): 1.19
SMILES: N#CN/C(=N\CCNC(=O)c1ccc(N)cc1)NCCCOc1cccc(CN2CCCCC2)c1 [Aminopotentidine (unmodified)]

NanoBRET Fold Response (HTR4; HTR4, tracer 0.1μM): 0.97
NanoBRET Fold Response (HTR4; HTR4, tracer 1μM): 1.05
NanoBRET Fold Response (P2RY4; P2RY4, tracer 0.1μM): 1.09
NanoBRET Fold Response (P2RY4; P2RY4, tracer 1μM): 1.07
NanoBRET Fold Response (CCR4; CCR4, tracer 0.1μM): 1.09
NanoBRET Fold Response (CCR4; CCR4, tracer 1μM): 0.96
SMILES: N#CN=C(NCCCOc1cccc(CN2CCCCC2)c1)NCCNC(=O)CCOCCOCCOCCOCCNC(=O)CCc1ccc2n1[B-](F)(F)[N+]1=C(c3ccc[nH]3)C=CC1=C2 [Aminopotentidine-2-NB590]

NanoBRET Fold Response (HTR4; 0.1μM tracer): 0.95
NanoBRET Fold Response (HTR4; 1μM tracer): 1.02
NanoBRET Fold Response (P2RY4; 0.1μM tracer): 1.10
NanoBRET Fold Response (P2RY4; 1μM tracer): 1.10
NanoBRET Fold Response (CCR4; 0.1μM tracer): 0.91
NanoBRET Fold Response (CCR4; 1μM tracer): 0.81
SMILES: COc1ccc2c(n1)c(CCNC(C)=O)cn2CCNC(=O)CCc1ccc2n1[B-](F)(F)[N+]1=C(c3ccc[nH]3)C=CC1=C2 [Azamelatonin-1-NB590]

NanoBRET Fold Response (HTR4; 0.1μM tracer): 1.03
NanoBRET Fold Response (HTR4; 1μM tracer): 0.95
NanoBRET Fold Response (P2RY4; 0.1μM tracer): 1.03
NanoBRET Fold Response (P2RY4; 1μM tracer): 1.13
NanoBRET Fold Response (CCR4; 0.1μM tracer): 1.23
NanoBRET Fold Response (CCR4; 1μM tracer): 0.96
SMILES: COc1ccc2[nH]c(-c3ccc(CNC(=O)CCOCCOCCOCCOCCNC(=O)CCc4ccc5n4[B-](F)(F)[N+]4=C(c6ccc[nH]6)C=CC4=C5)cc3)c(CCNC(C)=O)c2n1 [AzomelatoninICO9-2-NB590]
